According to US5562922A, “Drug incorporating and release polymeric coating for bioprosthesis” (Cedars-Sinai Medical Center, priority 1995, dated 1996):
Entries after “also recorded” stand apart in the source; their conditions may differ.

Legend:
[1] = Water solubility (in words); type: physicochemical
carotid artery [2] = experiment: Rabbit carotid crush injury, low flow thrombosis model; type: in vivo, New Zealand white rabbits
Source text: To evaluate the thrombogenicity of polyurethane stent coatings, a rabbit carotid crush injury, low flow thrombosis model was developed. Briefly, New Zealand white rabbits (n=14) underwent anesthesia with ketamine and xylazine followed by surgical exposure of the right carotid and left femoral arteries. A 6 french sheath was placed in the left femoral artery and a 2.0 mm transit time flow probe (Transonics) was placed in the distal carotid artery. No anticoagulant was given. Repeated crush injury with a plastic coated clamp was performed at similar force for fifteen times over a one cm. distance usually producing a small decrement in flow rate. After 5 minutes, a bare or polyurethane coated nitinol stent was advanced to straddle the area of injury and balloon expanded. After a 15 minute equilibration period during which a 3.0 mm balloon occluder was placed proximal to the stent, the occluder was inflated to reduce flow to 4 ml/min. (40% of baseline). Continuous pressure monitoring via pressure transducer placed on line in the occluder inflation system was performed to ensure maintenance of consistent occlusion.
Continuous carotid artery flow and mean blood pressure were recorded by strip chart recorder. If the flow remained <0.5 ml/min, for 5 minutes, the artery was considered occluded and experiment terminated. […] After euthanasia, the artery was removed and cut longitudinally with a scalpel. The polyurethane coating was visually inspected for defects. Presence of white or red thrombus was also noted.

carotid artery [3] = experiment: Carotid artery flow after stent delivery; type: in vivo, New Zealand white rabbits; conditions: 10.3±4.2 ml/min before
Method: (§1) For these experiments, nitinol stents were coated with Tecoflex™, to a thickness of about 50-100 microns, and then incubated in a solution containing unlabelled and tritiated forskolin with a specific activity of 25 μCi/mg. Resulting stents contained approximately 1.5 mg. of forskolin in approximately 20 mg of 50-100 micron thick polymer matrix coating.

[4] = design: species or system New Zealand white rabbits; conditions: rabbit
Method: as §1
(§2) Instantaneous blood release rates were calculated by the following formula using the conservation of mass principle: [formula] where dM=change in mass, dT=change in time, M=mass, Q=flow, C1=upstream concentration, and C2=downstream concentration. Scintillation counts were then adjusted for measured background and efficiency. The amount of forskolin present was calculated by comparison of tissue activity to a 25 uCi/mg standard. For comparison of tissue and blood forskolin concentrations, blood levels were divided by specific gravity of rabbit blood (1.050 g/ml). Statistical analysis to assess differences between the multiple sites of the tissue samples was by one-way analysis of variances (ANOVA). If significant differences were found (p<0.05), pairwise comparisons were then performed using the t-test within ANOVA corrected for multiple comparisons (Bonferoni/Least Significant Difference tests).

carotid artery [5] = system: carotid artery; design: species or system New Zealand white rabbits; conditions: rabbit, in vivo
Method: as §1, §2

[6] = In vitro drug release from polyurethane-coated stents, coils or films; conditions: for Total: total content; for initial release rate / release rate: release from polyurethane, Table 1A
Method: Drug incorporation into polyurethane-coated articles
Nitinol stents or stainless steel coils with surface area similar to nitinol stents were coated with Tecoflex 85A™ polyurethane to a thickness of about 50 microns in accordance with the manufacture's instructions for coating metal surfaces.
The drug loading procedure is carried out as follows: The desired compound is dissolved in a solution containing 3 parts ethanol and 1 part tetrahydrofuran (100 mg/ml for rhodamine B and 50 mg/ml for fluorescein dilaurate and forskolin).
When a hydrophilic compound such as hirulog was loaded in the polyurethane,the polyurethane was first loaded with sphingosine or any charged lipophilic molecule as described above. With this modification, the polyurethane will swell in organic solutions containing up to 10% water. The desired compound was then dissolved as 50 mg/ml in ethanol/tertrahydrofuran/water in a ratio of 65/25/1-20. The water content will vary according to the solubility of the desired compound in this solvent system.
After incubation, all stents, coils, and films were dried overnight at 40° C. at reduced pressure. To evaluate the ability of a charged lipid soluble drug to facilitate uptake and release of a water soluble compound, thin films containing 20 mg of polyurethane with or without 1 mg of sphingosine were produced by pour plating and drying overnight at 40° C. under reduced pressure. The films were then incubated in a solution of fluorescein disodium, a water soluble dye. After incubation, films were dried as described above.
After a 15 minute preincubation (wash step), stents, coils, or films were incubated for 2-3 days in 2 ml. of phosphate buffered saline (pH=7.4) or 5% bovine serum albumin in PBS at 37° C. in a shaking water bath. […] At the end of incubations, the polyurethane was dissolved in tertrahydrofuran and an aliquot analyzed to determine the quantity of compound remaining in the polymer. […] Solutions containing fluorescein dilaurate required addition of 200 μl of 10M sodium hydroxide to convert the fluorescein dilaurate into its colored form (release the two 16-carbon fatty acid dilaurate chains from the water soluble fluorescein molecule). Forskolin content was determined by scintillation counting.

[7] = system: thrombosis on the catheter; conditions: released from intravascular catheters; cited from earlier work
intimal hyperplasia = conditions: polyvinyl alcohol based polymer beads, perivascular tissue, rats; cited from earlier work
[8] = Etretinate delivery to vessel wall from coated stent (similar model); conditions: rabbit
[9] = Uptake by polymer, elution from polymer and tissue retention compared with forskolin; conditions: compared to forskolin
[10] = Film + SPH (sphingosine), n = 2, buffer not given
[11] = Film without sphingosine, n = 2, buffer not given

Compound: C=C[C@@]1(C)CC(=O)[C@]2(O)[C@@]3(C)[C@@H](O)CCC(C)(C)[C@@H]3[C@H](O)[C@H](OC(C)=O)[C@@]2(C)O1 [Forskolin]
- water solubility [1]: less soluble in aqueous solutions
- thrombosis of the stented segment (carotid artery [2]; compared to uncoated and coated stents): prevented thrombosis of the stented segment
- effect on TCF and TTO (carotid artery [2]; forskolin impregnated into the polyurethane): remarkably increased the time to cyclic flow (TCF) and time to occlusion (TTO)
- Time to Cyclic Flow (TCF) (carotid artery [2]; n = 5, p < 0.0001 compared to coated and uncoated (uncoated 16 ± 13, polymer coated 27 ± 17)): 208 ± 71 min
- Time to Occlusion (TTO) (carotid artery [2]; n = 5, uncoated 19 ± 18, polymer coated 54 ± 27): > 240 min
- stents exhibiting cyclic carotid blood flow (carotid artery [2]; number of forskolin impregnated stents, n = 5): one
- visual inspection of thrombus (carotid artery [2]; uncoated: mixed red and white thrombus, coated: predominately white thrombus): red thrombus only; also recorded: Absence of platelet rich white thrombus
- carotid artery flow at 1 min (carotid artery [3]; 1 min after stent delivery, p<0.005): 15.9 ± 2.6 mL/min
- carotid artery flow at 60 min (carotid artery [3]; 60 min after stent delivery, p<0.0001): 19.6 ± 4.4 mL/min
- in vivo release rate [4]: 7.0 µg/min
- calculated instantaneous release rate into the bloodstream, initial ([4]; in vivo): 6900 ng/min
- calculated instantaneous release rate into the bloodstream, over four hours ([4]; in vivo): 700 ng/min
- peak forskolin blood level ([4]; in vivo): 140 ng/mL
- immediate forskolin blood level ([4]; in vivo, 0 min): 57 ng/mL
- blood level ([4]; in vivo, 24 h): 68 ± 18 ng/mL
- concentration in adventitia overlying the stent relative to blood (carotid artery [5]): 360 times
- concentration in adventitia overlying the stent relative to contralateral artery (carotid artery [5]): 305 times
- concentration in media overlying the stent relative to blood (carotid artery [5]): 450 times
- concentration in media overlying the stent relative to contralateral artery (carotid artery [5]): 385 times
- forskolin levels in vessel proximal to, overlying and distal to stent (carotid artery [5]): significant levels of forskolin
- radial and longitudinal diffusion (carotid artery [5]): diffusion gradient in both longitudinal and radial directions away from the stent
- washout from the vessel wall (carotid artery [5]): rapid
- adventitia level in washout experiment, 2 hours (carotid artery [5]; 2 h): 1.7 ng/mg
- media level in washout experiment, two hours (carotid artery [5]; 2 h): 1.2 ng FSK/mg tissue
- other adjacent tissues level in washout experiment, two hours (carotid artery [5]; 2 h): < 0.6 ng/mg
- adventitia level (carotid artery [5]; 24 h): 4.1±1.8 ng FSK/mg tissue
- adventitia level in washout experiment, 24 hours (carotid artery [5]; 24 h): 0.1 ng/mg
- adventitia tissue to blood ratio (carotid artery [5]; 24 h): 61±18
- media level (carotid artery [5]; 24 h): 4.9±1.2 ng/mg tissue
- media level in washout experiment, 24 hours (carotid artery [5]; 24 h): 0.2 ng FSK/mg
- media tissue to blood ratio (carotid artery [5]; 24 h): 77±22
- other adjacent tissues level in washout experiment, 24 hours (carotid artery [5]; 24 h): < 0.1 ng/mg
- Release Rate Day 1 ([6]; Stents, PBS, n = 3): 3.8 µg/h
- Release Rate Day 2 ([6]; Stents, PBS, n = 3): 3.9 µg/h
- Release Rate Day 3 ([6]; Stents, PBS, n = 3): 1.6 µg/h
- Total ([6]; Stents, PBS, n = 3): 4.4 mg
- in vitro release rate ([6]; in vitro, compared with in vivo): 0.5 µg/min
- initial release rate / release rate [6]: slower release rate

Compound: heparin
- thrombosis on the catheter [7]: sufficient to decrease thrombosis on the catheter
- intimal hyperplasia (intimal hyperplasia): inhibited intimal hyperplasia

Compound: CCN(CC)c1ccc2c(-c3ccccc3C(=O)O)c3ccc(=[N+](CC)CC)cc-3oc2c1 [Rhodamine B]
- Release Rate Day 1 ([6]; Coil, PBS, n = 3): 37.0 µg/h
- Release Rate Day 2 ([6]; Coil, PBS, n = 3): 5.2 µg/h
- Total ([6]; Coil, PBS, n = 3): 1.5 mg
- initial release rate / release rate [6]: highest initial release rate

Compound: CCCCCCCCCCCC(=O)Oc1ccc2c(c1)Oc1cc(OC(=O)CCCCCCCCCCC)ccc1C21OC(=O)c2ccccc21 [Fluorescein dilaurate, fluorescein dilaurate]
- water solubility [1]: insoluble in water
- Release Rate Day 1 ([6]; Coil, 5% BSA, n = 1): 3.4 µg/h
- Release Rate Day 2 ([6]; Coil, 5% BSA, n = 1): 2.3 µg/h
- Release Rate Day 1 ([6]; Film, 5% BSA, n = 2): 4.6 µg/h
- Release Rate Day 2 ([6]; Film, 5% BSA, n = 2): 3.7 µg/h
- initial release rate / release rate [6]: required 5% albumin to promote release

Compound: CCOC(=O)/C=C(C)/C=C/C=C(C)/C=C/c1c(C)cc(OC)c(C)c1C [Etretinate]
- concentration at 72 h ([8]; vessel wall): 185000 ng/g
- concentration at 24 h ([8]; vessel wall media): 250000 ng/g
- elution rate from the polymer [9]: decreased elution rate from the polymer
- tissue retention [9]: increased tissue retention
- uptake by the polymer [9]: increased uptake by the polymer

Compound: O=C1OC2(c3ccc(O)cc3Oc3cc(O)ccc32)c2ccccc21 [Fluorescein disodium, fluorescein disodium]
- water solubility [1]: water soluble
- Release Rate Day 1 [6, 10]: 16.0 µg/h
- Release Rate Day 2 [6, 10]: 4.0 µg/h
- Release Rate Day 3 [6, 10]: 2.0 µg/h
- Total ([6]; Film + SPH (sphingosine), n = 2): 1.1 mg
- Release Rate Day 1 [6, 11]: 4.0 µg/h
- Release Rate Day 2 [6, 11]: 1.8 µg/h
- Release Rate Day 3 [6, 11]: 1.8 µg/h
- Total ([6]; Film without sphingosine, n = 2): 0.3 mg
- total content and delivery rate ([6]; with the addition of sphingosine (SPH) to the matrix): improved total content; also recorded: subsequently higher delivery rate
